Assay results as given in patent US6605639B1, “Ligands of nuclear receptor” (Nuclear Receptor Research, Ltd., priority 1998, dated 2003).

Tests used:
[1] = Oral administration of radioisotope-labeled compound: recovery and distribution of radioactivity; format: in vivo, rat; conditions: once
Excerpt: The Schiff base formed by the reaction of the compound of the present invention with serum protein is an inactivated compound with a masked biological activity. […] It is still interesting that the radioactive compound incorporated into the adipocyte tissue was free Compound-6 dissolved in oil droplets in cells. It is unknown why the radioactivity is distributed selectively in adipocyte tissue and accumulated with the passage of time. […] Namely, the compound of the present invention is converted into a highly safe Schiff base with the masked biological activity at the step of being absorbed via digestive tract. This Schiff base is adsorbed on the target cell surface layer and incorporated into the cells via endocytosis. Then it is hydrolyzed to regenerate the free Compound-6. The free Compound-6 is dissolved in oil droplets in depot fat. In adipocytes, it is gradually dissolved in cytoplasm and exerts its effect. When depot fat in white adipocyte tissue is transported into other tissues as an energy source, the free Compound-6 is transported together with the fat. That is to say, it also serves as a depot simultaneously. The compound according to the present invention is hardly incorporated into other tissues. […] Different from retinoids, the compounds of the present invention can exert the effects without causing the side effects inherent to retinoids. The reasons are, without doubt, related to kinetics (absorption, transportation, regeneration of activated compound in target cell surface layer, etc.) of the compounds of the present invention, which differ from those of retinoids. […]

db/db mice = assay: Calcium metabolism in db/db mice; format: in vivo, mouse; conditions: administration for 1 week
Excerpt: RXR also forms a heterodimer with a nuclear receptor, VDR, which acts with active vitamin D3 (1a,25-dihydrocyvitamin D3) as a ligand. However, no study has been made so far how the formation of this heterodimer means in vivo. Thus the effect of this heterodimer on gene transcription and, in its turn, its physiological meaning still remain unknown. Activated vitamin D3 is essential for bone development and growth in children. Also, it is essential for preventing osteoporosis and bone fracture in aged and sick persons. In spite of such meaningful effects, studies have not been conducted to clarify the function of the heterodimer of VDR with RXR. The inventors studied calcium metabolism in db/db mice and the effect of Compound-14 on the calcium metabolism. This study was partly reported in 1992 (Tomoyoshi Hosokawa, Nogei Kagaku Kai-shi (J. Agr. Chem.), 66:1221-1226, 1992). Compared with normal litter of the same age, db/db mice show abnormally high levels of urinary calcium, blood calcium, blood calcitonin and parathyroid hormone. […] By feeding db/db mice over a long time of period (4 weeks), it was found out that these animals suffered form a decrease in bone mineral density compared with normal litter of the same age. […]

Compound | radioactivity incorporated into white adipocyte tissue [1] | route of excretion of radioactivity [1] | time after which radioactivity disappeared in most of the organs [1] | urinary calcium, blood calcium and calcitonin levels (db/db mice)
COc1c(Cl)c(C)c(C=O)c(O)c1C/C=C(C)/C=C/[C@@]1(C)[C@H](C)CCC(=O)[C@@H]1C [Compound-6, 4-O-methylASC] | elevated day by day | mostly excreted via feces | 3 days | 
CC(/C=C/[C@@]1(C)[C@H](C)CCC(=O)[C@@H]1C)=C\Cc1c(O)c(C=O)c(C)c(Cl)c1OCC(=O)O [Compound-14, 4-O-carboxymethylASC] |  |  |  | significantly lowered
